# Assay results: PubChem BioAssay (NCI)
#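 Step 1: Grow cells in 96-well plates. Step 2: Expose to compound for 48 hours at 5 concentrations. Step 3: Interpolate endpoints linearly; if unreached, use highest concentration. GI50 = concentration required for 50% inhibition of growth. TGI marks complete inhibition of growth.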
# Columns and labels:
# Experiment in all cases: NCI anticancer screen, dose series, 48 h
# [1] = test system: OVCAR-4 ovarian
# [2] = test system: HT29 colon
# [3] = test system: MDA-MB-435
# [4] = test system: M14 melanoma
# [5] = test system: OVCAR-8 ovarian
# [6] = test system: MCF7 breast
# [7] = test system: 786-0 renal
# [8] = test system: LOX IMVI melanoma
# [9] = test system: EKVX NSCLC
# [10] = test system: NCI-H460 lung
# [11] = test system: SW-620 colon
# [12] = test system: OVCAR-3 ovarian
# [13] = test system: SF-268 CNS
# [14] = test system: A498 renal
# [15] = test system: A549 NSCLC
# [16] = test system: K-562 leukemia
# [17] = test system: SK-MEL-2 melanoma
# [18] = test system: HCT-116 colon
# [19] = test system: HL-60(TB) leukemia
# [20] = test system: HOP-92 NSCLC
# [21] = test system: CCRF-CEM leukemia
# [22] = test system: SF-295 CNS
# [23] = test system: SK-MEL-28 melanoma
# [24] = test system: HS 578T breast
# [25] = test system: SNB-19 CNS
# [26] = test system: HOP-62 NSCLC
# [27] = test system: U251 CNS
# [28] = test system: COLO 205 colon
# [29] = test system: MDA-MB-231 breast
# [30] = test system: MOLT-4 leukemia
# [31] = test system: ACHN renal
# [32] = test system: HCC-2998 colon
# [33] = test system: SN12C renal
# [34] = test system: NCI-H23 lung
# [35] = test system: TK-10 renal
# [36] = test system: SR leukemia
# [37] = test system: NCI/ADR-RES ovarian
# [38] = test system: NCI-H226 lung
# [39] = test system: DU-145 prostate
# [40] = test system: BT-549 breast
# [41] = test system: SK-MEL-5 melanoma
# [42] = test system: KM12 colon
# [43] = test system: SK-OV-3 ovarian
# [44] = test system: RPMI-8226 leukemia
# [45] = test system: T-47D breast
# [46] = test system: RXF 393 renal
# [47] = test system: NCI-H522 lung
# [48] = test system: PC-3 prostate
# [49] = test system: HCT-15 colon
# [50] = test system: IGROV1 ovarian
# [51] = test system: UACC-62 melanoma
# [52] = test system: UO-31 renal
# [53] = test system: OVCAR-5 ovarian
# [54] = test system: SF-539 CNS
# [55] = test system: CAKI-1 renal
# [56] = test system: SNB-75 CNS
# [57] = test system: UACC-257 melanoma
smiles,measurement,setting,value
Cc1c(Cl)cccc1NC(=O)c1sc2nc3c(cc2c1N)CCCCCC3,GI50,[1],0.936 µM
same,TGI,[1],15.2 µM
same,GI50,[2],0.188 µM
same,TGI,[2],6.56 µM
same,GI50,[3],0.0761 µM
same,TGI,[3],0.251 µM
same,GI50,[4],0.154 µM
same,TGI,[4],> 50 µM
same,GI50,[5],0.286 µM
same,TGI,[5],> 50 µM
same,GI50,[6],0.149 µM
same,TGI,[6],> 50 µM
same,GI50,[7],0.223 µM
same,TGI,[7],14.7 µM
same,GI50,[8],0.3 µM
same,TGI,[8],> 50 µM
same,GI50,[9],0.234 µM
same,TGI,[9],> 50 µM
same,GI50,[10],0.187 µM
same,TGI,[10],> 50 µM
same,GI50,[11],0.175 µM
same,TGI,[11],> 50 µM
same,GI50,[12],0.174 µM
same,TGI,[12],1.21 µM
same,GI50,[13],0.821 µM
same,TGI,[13],> 50 µM
same,GI50,[14],0.202 µM
same,TGI,[14],9.16 µM
same,GI50,[15],0.369 µM
same,TGI,[15],> 50 µM
same,GI50,[16],0.113 µM
same,TGI,[16],> 50 µM
same,GI50,[17],0.196 µM
same,TGI,[17],24.2 µM
same,GI50,[18],0.195 µM
same,TGI,[18],> 50 µM
same,GI50,[19],0.158 µM
same,TGI,[19],3.4 µM
same,GI50,[20],0.164 µM
same,TGI,[20],16.1 µM
same,GI50,[21],0.176 µM
same,TGI,[21],> 50 µM
same,GI50,[22],0.168 µM
same,TGI,[22],13 µM
same,GI50,[23],4.59 µM
same,TGI,[23],> 50 µM
same,GI50,[24],0.204 µM
same,TGI,[24],22.9 µM
same,GI50,[25],0.258 µM
same,TGI,[25],28.5 µM
same,GI50,[26],0.326 µM
same,TGI,[26],19.8 µM
same,GI50,[27],0.223 µM
same,TGI,[27],14.3 µM
same,GI50,[28],0.285 µM
same,TGI,[28],> 50 µM
same,GI50,[29],0.356 µM
same,TGI,[29],> 50 µM
same,GI50,[30],0.265 µM
same,TGI,[30],> 50 µM
same,GI50,[31],0.465 µM
same,TGI,[31],> 50 µM
same,GI50,[32],1.39 µM
same,TGI,[32],> 50 µM
same,GI50,[33],0.408 µM
same,TGI,[33],> 50 µM
same,GI50,[34],0.273 µM
same,TGI,[34],> 50 µM
same,GI50,[35],10.7 µM
same,TGI,[35],47.4 µM
same,GI50,[36],0.101 µM
same,TGI,[36],> 50 µM
same,GI50,[37],0.164 µM
same,TGI,[37],15.7 µM
same,GI50,[38],1.14 µM
same,TGI,[38],25.1 µM
same,GI50,[39],0.258 µM
same,TGI,[39],> 50 µM
same,GI50,[40],0.439 µM
same,TGI,[40],23.4 µM
same,GI50,[41],0.177 µM
same,TGI,[41],10.5 µM
same,GI50,[42],0.197 µM
same,TGI,[42],> 50 µM
same,GI50,[43],0.279 µM
same,TGI,[43],26.5 µM
same,GI50,[44],0.166 µM
same,TGI,[44],> 50 µM
same,GI50,[45],0.223 µM
same,TGI,[45],> 50 µM
same,GI50,[46],0.133 µM
same,TGI,[46],3.5 µM
same,GI50,[47],0.116 µM
same,TGI,[47],1.07 µM
same,GI50,[48],0.174 µM
same,TGI,[48],> 50 µM
same,GI50,[49],0.156 µM
same,TGI,[49],> 50 µM
same,GI50,[50],0.426 µM
same,TGI,[50],> 50 µM
same,GI50,[51],0.205 µM
same,TGI,[51],46.6 µM
same,GI50,[52],1.51 µM
same,TGI,[52],> 50 µM
same,GI50,[53],0.791 µM
same,TGI,[53],> 50 µM
same,GI50,[54],0.168 µM
same,TGI,[54],7.93 µM
O=C(NCCCCNCCCNC(=O)C(F)(F)F)C(F)(F)F,TGI,[55],> 100 µM
same,TGI,[1],> 100 µM
same,TGI,[2],> 100 µM
same,TGI,[3],> 100 µM
same,TGI,[4],> 100 µM
same,TGI,[5],> 100 µM
same,TGI,[6],> 100 µM
same,TGI,[7],> 100 µM
same,TGI,[9],> 100 µM
same,TGI,[10],> 100 µM
same,TGI,[11],> 100 µM
same,TGI,[12],> 100 µM
same,TGI,[13],> 100 µM
same,TGI,[56],> 100 µM
same,TGI,[57],> 100 µM
same,TGI,[14],> 100 µM
same,TGI,[15],> 100 µM
same,TGI,[16],> 100 µM
same,TGI,[17],> 100 µM
same,TGI,[18],> 100 µM
same,TGI,[19],> 100 µM
same,TGI,[20],> 100 µM
same,TGI,[21],> 100 µM
same,TGI,[22],> 100 µM
same,TGI,[23],> 100 µM
same,TGI,[24],> 100 µM
same,TGI,[25],> 100 µM
same,TGI,[26],> 100 µM
same,TGI,[27],> 100 µM
same,TGI,[28],> 100 µM
same,TGI,[29],> 100 µM
same,TGI,[30],> 100 µM
same,TGI,[31],> 100 µM
same,TGI,[32],> 100 µM
same,TGI,[33],> 100 µM
same,TGI,[34],> 100 µM
same,TGI,[35],> 100 µM
same,TGI,[36],> 100 µM
same,TGI,[37],> 100 µM
same,TGI,[38],> 100 µM
same,TGI,[39],> 100 µM
same,TGI,[40],> 100 µM
same,TGI,[41],> 100 µM
same,TGI,[42],> 100 µM
same,TGI,[43],65.5 µM
same,TGI,[44],> 100 µM
same,TGI,[45],> 100 µM
same,TGI,[46],> 100 µM
same,TGI,[47],> 100 µM
same,TGI,[48],> 100 µM
same,TGI,[49],> 100 µM
same,TGI,[50],> 100 µM
same,TGI,[51],> 100 µM
same,TGI,[52],> 100 µM
same,TGI,[53],> 100 µM
same,TGI,[54],> 100 µM
